No end group written: not given here.
Tested on: PC12 cells
Test: Neuritogenesis in PC12 cells
Type: cell-based, rat
Settings: for enhancement of NGF-induced neurite outgrowth: in the presence of NGF, 48 hours; for neurite outgrowth in the absence of NGF: compound alone; for effect of inhibitor on NGF neuritogenic activity / effect on neuritogenic properties of the NO donors: PC12 cells with NGF; for effect of inhibitor on neuritogenic effects of guanosine: PC12 cells with guanosine and NGF
Protocol: Much of the work performed in the characterization of the compounds of the present invention involved the use of PC12 cells. These cells are derived from a rat pheochromocytoma and when grown in the presence of NGF, extend neurites, cease cell division and assume many characteristics of sympathetic neurons. When cultured in the absence of nerve growth factor (NGF), few PC12 cells have neurites greater than one cell diameter. Addition of saturating concentrations of NGF for 48 hours stimulates neurite outgrowth in about 20-35% of the cells. Because they constitute a homogeneous population of neuronal-like cells, without contaminating astroglia type cells, it is possible to study the direct effects of the purine based compounds on neurite outgrowth in these cells.
Cells cultured in RPMI 1640 with 1.5% horse serum and 1.5% fetal bovine serum were re-plated onto poly-ornithine coated 24-well culture plates (2.5×10^4 cells per well). AIT-082 and NGF were added to the various cultures immediately upon plating. After 48 hours, medium was removed and the cells irnmediately fixed in 10% formalin and PBS for 10 minutes. Cells and neurites were counted within 2 days of fixation.
A neurite was defined as a process extending from the cell at least 1 cell body diameter in length and displaying a growth cone at its tip. For each treatment, 2 representative microscope fields were counted from each of 6 sister cultures receiving identical treatments. The total number of cells counted per well (approximately 100 cells) and the total number of cells containing neurites in each well were used to determine fraction of neurite-bearing cells. The mean values (±SEM) were then determined for each of the treatments. To facilitate comparison neurite outgrowth was expressed relative to the proportion of cells bearing neurites in the presence of NGF alone (NGF=100%). The effects of compounds with and without NGF were compared by analysis of variance (ANOVA) followed by Tukey's test for significance.
The results are shown in FIG. 3 where the curve represents different levels of AIT-082 plus saturating concentrations (40 ng/ml) NGF. The center horizontal line represents control values for cells cultured in the presence of 40 ng/ml NGF alone. Upper and lower horizontal lines are indicative of confidence limits of NGF alone as determined using standard statistical methods.

CCOC(=O)CCn1cnc2c(N)ncnc21 [AIT-0026, 3-(6-amino-9H-purin-9-yl)propionic acid, ethyl ester]
modification of neural activity: failed to modify neural activity

O=C(CCn1cnc2c(=O)[nH]cnc21)NCCCN1CCCC1=O [AIT-034, 3-(1,6 dihydro-6-oxo-9hpurin-9-yl)-N-(3-(2-oxopyrrolidin-1-yl)propyl) propanamide]
modification of neural activity: failed to modify neural activity | enhancement of NGF-induced neurite outgrowth: did not enhance NGF-induced neuritogenesis

Nc1ncnc2c1ncn2[C@@H]1O[C@H](COP(=O)(O)OP(=O)(O)OP(=O)(O)O)[C@@H](O)[C@H]1O [ATP, adenosine triphosphate]
neurite outgrowth in the absence of NGF: did not enhance neuritogenesis | enhancement of NGF-induced neurite outgrowth: did not enhance neuritogenesis

Nc1nc2c(ncn2[C@@H]2O[C@H](COP(=O)(O)OP(=O)(O)O)[C@@H](O)[C@H]2O)c(=O)[nH]1 [GDP, guanosine diphosphate]
enhancement of NGF-induced neurite outgrowth: neither GDP nor GMP were effective alone or with NGF

Nc1nc2c(ncn2[C@@H]2O[C@H](COP(=O)(O)O)[C@@H](O)[C@H]2O)c(=O)[nH]1 [GMP, guanosine monophosphate]
enhancement of NGF-induced neurite outgrowth: neither GDP nor GMP were effective alone or with NGF

O=C1C(Nc2ccccc2)=CC(=O)c2ncccc21 [LY83583]
effect of inhibitor on NGF neuritogenic activity: the response elicited by NGF was unaffected | effect of inhibitor on neuritogenic effects of guanosine: inhibited

CN(C)c1ccc2nc3ccc(=[N+](C)C)cc-3sc2c1 [Methylene blue]
effect of inhibitor on neuritogenic action of AIT-082 (PC12 cells): inhibited the action of AIT-082 | effect of inhibitor on NGF neuritogenic activity: no effect on NGF activity | effect of inhibitor on NGF neuritogenic activity (listed as MB): no effect on NGF-stimulated neurite outgrowth | effect of inhibitor on neuritogenic effects of guanosine: abolished the synergistic effects of guanosine with NGF

CCNC(=O)[C@H]1O[C@@H](n2cnc3c(N)ncnc32)[C@H](O)[C@@H]1O [NECA, 5′-N-ethylcarboxamidoadenosine]
neurite outgrowth in the absence of NGF: little stimulation of neurite outgrowth | effect on the actions of guanosine (in the presence and absence of NGF): could synergistically enhance the actions of guanosine | enhancement of NGF-induced neurite outgrowth: also enhanced neuritogenesis, but not to the same extent as guanosine

O=NO [SN, sodium nitrite]
neurite outgrowth in the absence of NGF: neither SNP nor SN elicited neurite outgrowth | enhancement of NGF-induced neurite outgrowth: enhanced NGF-mediated neurite outgrowth in a synergistic manner

C=CC1=C(C)c2cc3[n-]c(cc4[n-]c(cc5nc(cc1n2)C(C)=C5C=C)c(C)c4CCC(=O)O)c(CCC(=O)O)c3C.[Zn+2] [Zinc protoporphyrin IX]
effect of inhibitor on neuritogenic action of AIT-082 (PC12 cells): inhibited the action of AIT-082 | effect of inhibitor on NGF neuritogenic activity: no effect on NGF activity | effect of inhibitor on NGF neuritogenic activity (listed as ZnPP): did not affect those of NGF | effect of inhibitor on neuritogenic effects of guanosine: abolished the neuritogenic effects of guanosine

Nc1ncnc2c1ncn2[C@@H]1O[C@H](CO)[C@@H](O)[C@H]1O [adenosine]
modification of neural activity: relatively ineffective | neurite outgrowth in the absence of NGF: slightly increased the proportion of cells with neurites | enhancement of NGF-induced neurite outgrowth: did not enhance NGF induced neurite outgrowth at any concentration

O=c1[nH]cnc2nc[nH]c12 [hypoxanthine]
modification of neural activity: relatively ineffective | stimulation of neuritogenesis and enhancement of NGF-stimulated neuritogenesis (PC12 cells): weakly effective | enhancement of NGF-induced neurite outgrowth: the greatest, although still modest, enhancement

OC[C@H]1O[C@@H](n2cnc3c(O)ncnc32)[C@H](O)[C@@H]1O [inosine]
modification of neural activity: relatively ineffective | stimulation of neuritogenesis and enhancement of NGF-stimulated neuritogenesis (PC12 cells): weakly effective | enhancement of NGF-induced neurite outgrowth: only slightly enhanced neurite outgrowth

CCCn1cnc2c1c(=O)n(CCCCC(C)=O)c(=O)n2C [propentofylline]
modification of neural activity: failed to modify neural activity

O=c1[nH]c(=O)c2[nH]cnc2[nH]1 [xanthine]
modification of neural activity: relatively ineffective | concentration toxic to the cells (PC12 cells): 300000 µM | enhancement of NGF-induced neurite outgrowth: only slightly enhanced NGF-induced neurite outgrowth

ANF: atrial natriuretic factor, a hormone activating particulate guanylyl cyclase (SLRRSSCFGGRMDRIGAQSGLGCNSFRY; ends and bridges not checked; cysteine pairing not given here; UniProt P01160 124-151, looked up)
enhancement of NGF-induced neurite outgrowth: enhanced NGF-stimulated neurite outgrowth

Methemoglobin: captures and removes nitric oxide (NO) and carbon monoxide (CO) from the culture media
effect of inhibitor on neuritogenic action of AIT-082 (PC12 cells): inhibited the action of AIT-082 | effect of inhibitor on NGF neuritogenic activity: no effect on NGF activity | effect on neuritogenic properties of the NO donors: inhibited

copper protoporphyrin IX [CuPP]
effect of inhibitor on neuritogenic effects of guanosine: did not reduce the ability of guanosine to enhance NGF-dependent neurite outgrowth

hemoglobin
effect of inhibitor on neuritogenic action of AIT-082 (PC12 cells): inhibited | effect on neuritogenic properties of the NO donors: inhibited | effect of inhibitor on neuritogenic effects of guanosine: inhibited the neuritogenic effects of guanosine

— patent publication US6338963B1, “Use of carbon monoxide dependent guanylyl cyclase modifiers to stimulate neuritogenesis” (NeoTherapeutics, Inc., priority 1994, dated 2002)
